Measured values reported in patent US7342010B2, “2-thiaquinolizidines and process for the preparation thereof” (Board of Trustees of Michigan State University, priority 2004, dated 2008).
Like-named read-outs stand apart in the source and are kept apart here.

Assays:
α-glucosidase (yeast) [1] = details: cited from earlier work; for Ki: literature values, read-out: Inhibition activity Ki, α-glucosidase (yeast)
α-glucosidase (rice) [2] = molecular target: T1, α-glucosidase (rice) (Oryza sativa subsp. japonica, UniProt Q653V7); details: cited from earlier work; for Ki: literature values, read-out: Inhibition activity Ki, α-glucosidase (rice)
T1 construct: purchased Sigma

β-glucosidase (almond) [3] = details: cited from earlier work
α-glucosidase (yeast) [4] = tested on: T2, α-glucosidase (yeast); assay: Inhibition of yeast α-glucosidase, hydrolysis of p-nitrophenylglucoside followed spectrophotometrically; type: biochemical
T2 construct: other: p-nitrophenylglucoside substrate, 37° C
Protocol: (§1) The inhibitory activity of 3 against a series of enzyme was tested. Enzymes were assayed according to standard procedures (Halvorson, H. O., Methods Enzymol. 8, 55 (1966)) by following the hydrolysis of nitrophenyl glycosides spectrophotometrically or by evaluating the reducing sugar formed in some glucosidase assays. The enzymes used were α-glucosidase (yeast and rice), β-glucosidase (almond), α-galactosidase (green coffee beans), β-galactosidase (E. coli) and α-mannosidase (jack beans).
(§2) Inhibitory potency of 3 was determined by spectrophotometrically measuring the residual hydrolytic activities of the glycosidases against the corresponding nitrophenyl α- or β-D-glucopyranoside. The glycosidases used were α-glucosidase (yeast), α-glucosidase (rice), β-glucosidase (almond), α-galactosidase (green coffee beans), β-galactosidase (E. coli) and α-mannosidase (jack beans). All enzymes were purchased from Sigma. Each assay was performed in a phosphate or an acetate buffer at the optimal pH for each enzyme. Inhibition studies (except rice α-glucosidase) were performed by adding the inhibitor to a final concentration of 0.05 mM to 11 mM to the respective buffer solutions along with enzyme. The solutions were incubated at 37° C. before adding substrates to the solutions. The absorbance of the resulting mixture was determined at 400 nm (for p-nitrophenol).

α-glucosidase (rice) [5] = molecular target: T1, α-glucosidase (rice); assay: Inhibition of rice α-glucosidase, maltose substrate, glucose oxidase/peroxidase coupled assay; type: biochemical
Protocol: as §1
as §2, with “Inhibition studies (except rice α-glucosidase) were performed by adding the inhibitor to a final concentration of 0.05 mM to 11 mM to the respective buffer solutions along with enzyme. The solutions were incubated at 37° C. before adding substrates to the solutions.” left out
For rice α-glucosidase inhibition, maltose was used as the substrate, and the assay was based on the glucose oxidase/peroxidase enzyme procedure. […] The absorbance of the solution was determined at 500 nm for oxidized o-dianisidine. […] The absorbance of the solution was determined at 500 nm.

β-glucosidase (almond) [6] = assay: Inhibition of almond β-glucosidase, nitrophenyl glycoside hydrolysis; type: biochemical
Protocol: as §1, §2

[7] = molecular target: T3, α-galactosidase (green coffee beans) (Coffea arabica, UniProt Q42656); assay: Inhibition of green coffee bean α-galactosidase, nitrophenyl glycoside hydrolysis; type: biochemical
T3 construct: purchased Sigma
Protocol: as §1, §2

[8] = molecular target: T4, β-galactosidase (E. coli) (Escherichia coli, UniProt P00722); assay: Inhibition of E. coli β-galactosidase, nitrophenyl glycoside hydrolysis; type: biochemical
T4 construct: purchased Sigma
Protocol: as §1, §2

[9] = molecular target: T5, α-mannosidase (jack beans) (Canavalia ensiformis, UniProt C0HJB3); assay: Inhibition of jack bean α-mannosidase, nitrophenyl glycoside hydrolysis; type: biochemical
T5 construct: purchased Sigma
T5 sequence (C0HJB3 1-562 limits assumed): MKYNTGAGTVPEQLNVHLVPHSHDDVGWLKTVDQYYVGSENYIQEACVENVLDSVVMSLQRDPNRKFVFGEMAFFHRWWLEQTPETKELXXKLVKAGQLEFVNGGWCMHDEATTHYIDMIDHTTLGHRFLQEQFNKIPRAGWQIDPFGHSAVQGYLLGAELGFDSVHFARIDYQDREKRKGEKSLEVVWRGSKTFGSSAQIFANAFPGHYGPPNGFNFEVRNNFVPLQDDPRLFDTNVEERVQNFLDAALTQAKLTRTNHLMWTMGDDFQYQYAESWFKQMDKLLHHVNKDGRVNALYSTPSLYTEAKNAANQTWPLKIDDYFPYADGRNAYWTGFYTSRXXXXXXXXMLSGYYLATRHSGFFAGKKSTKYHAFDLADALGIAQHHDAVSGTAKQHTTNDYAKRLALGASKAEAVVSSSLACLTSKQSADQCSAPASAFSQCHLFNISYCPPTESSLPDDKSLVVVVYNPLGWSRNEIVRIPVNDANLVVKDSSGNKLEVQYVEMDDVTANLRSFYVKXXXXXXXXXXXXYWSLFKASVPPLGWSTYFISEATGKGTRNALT
T5 sequence (C0HJB3 563-981 limits assumed): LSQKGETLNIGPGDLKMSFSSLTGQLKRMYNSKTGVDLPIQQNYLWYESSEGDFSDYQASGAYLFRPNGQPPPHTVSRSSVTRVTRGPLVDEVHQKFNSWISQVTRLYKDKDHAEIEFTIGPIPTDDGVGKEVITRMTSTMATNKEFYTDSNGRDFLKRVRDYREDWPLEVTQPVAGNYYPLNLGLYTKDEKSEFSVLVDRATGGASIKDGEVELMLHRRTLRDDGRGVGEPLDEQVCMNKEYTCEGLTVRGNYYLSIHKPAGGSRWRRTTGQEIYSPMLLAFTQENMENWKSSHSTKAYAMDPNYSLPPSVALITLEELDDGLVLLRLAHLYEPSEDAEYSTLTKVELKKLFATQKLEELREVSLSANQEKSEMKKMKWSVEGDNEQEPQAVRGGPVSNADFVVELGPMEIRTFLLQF
Protocol: as §1, §2

[10] = molecular target: T3, α-galactosidase (green coffee beans); details: literature values; n.i. = no inhibition observed; cited from earlier work
[11] = molecular target: T5, α-mannosidase (jack beans); details: cited from earlier work
β-glucosidase = details: literature, enzyme source not stated; cited from earlier work
[12] = literature values, n.i. = no inhibition observed

T1 sequence (Q653V7 34-885): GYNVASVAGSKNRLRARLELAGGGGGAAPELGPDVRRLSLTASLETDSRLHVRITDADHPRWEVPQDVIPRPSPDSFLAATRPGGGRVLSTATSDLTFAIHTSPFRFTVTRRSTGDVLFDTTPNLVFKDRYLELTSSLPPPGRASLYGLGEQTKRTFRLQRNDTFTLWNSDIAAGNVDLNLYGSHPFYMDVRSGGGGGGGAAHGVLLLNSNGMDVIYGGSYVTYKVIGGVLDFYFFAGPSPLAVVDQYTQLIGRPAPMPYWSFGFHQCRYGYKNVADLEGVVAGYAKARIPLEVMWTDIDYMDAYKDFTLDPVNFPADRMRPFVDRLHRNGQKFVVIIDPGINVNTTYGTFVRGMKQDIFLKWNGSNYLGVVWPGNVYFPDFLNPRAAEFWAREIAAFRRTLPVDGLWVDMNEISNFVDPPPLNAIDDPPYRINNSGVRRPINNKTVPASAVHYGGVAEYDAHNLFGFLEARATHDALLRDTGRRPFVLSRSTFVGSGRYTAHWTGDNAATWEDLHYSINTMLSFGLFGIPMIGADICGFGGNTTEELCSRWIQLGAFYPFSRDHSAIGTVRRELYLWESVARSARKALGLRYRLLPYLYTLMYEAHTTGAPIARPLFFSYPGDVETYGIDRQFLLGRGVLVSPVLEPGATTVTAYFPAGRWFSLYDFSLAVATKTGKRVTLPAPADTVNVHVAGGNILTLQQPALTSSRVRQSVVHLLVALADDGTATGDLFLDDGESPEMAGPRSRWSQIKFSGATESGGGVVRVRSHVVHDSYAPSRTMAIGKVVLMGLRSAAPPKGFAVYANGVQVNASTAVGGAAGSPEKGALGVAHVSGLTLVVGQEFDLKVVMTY
T3 sequence (Q42656 16-378): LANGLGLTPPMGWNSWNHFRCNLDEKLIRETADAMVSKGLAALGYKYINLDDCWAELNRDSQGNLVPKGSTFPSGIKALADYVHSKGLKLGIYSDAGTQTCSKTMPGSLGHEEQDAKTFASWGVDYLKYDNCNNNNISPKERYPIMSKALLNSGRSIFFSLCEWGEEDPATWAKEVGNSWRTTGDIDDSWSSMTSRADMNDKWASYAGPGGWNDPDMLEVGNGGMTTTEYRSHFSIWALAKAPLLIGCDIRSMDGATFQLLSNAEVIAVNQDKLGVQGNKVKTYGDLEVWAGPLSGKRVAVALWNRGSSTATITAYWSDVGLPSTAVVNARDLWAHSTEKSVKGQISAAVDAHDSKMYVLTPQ
T4 sequence (P00722 2-1024): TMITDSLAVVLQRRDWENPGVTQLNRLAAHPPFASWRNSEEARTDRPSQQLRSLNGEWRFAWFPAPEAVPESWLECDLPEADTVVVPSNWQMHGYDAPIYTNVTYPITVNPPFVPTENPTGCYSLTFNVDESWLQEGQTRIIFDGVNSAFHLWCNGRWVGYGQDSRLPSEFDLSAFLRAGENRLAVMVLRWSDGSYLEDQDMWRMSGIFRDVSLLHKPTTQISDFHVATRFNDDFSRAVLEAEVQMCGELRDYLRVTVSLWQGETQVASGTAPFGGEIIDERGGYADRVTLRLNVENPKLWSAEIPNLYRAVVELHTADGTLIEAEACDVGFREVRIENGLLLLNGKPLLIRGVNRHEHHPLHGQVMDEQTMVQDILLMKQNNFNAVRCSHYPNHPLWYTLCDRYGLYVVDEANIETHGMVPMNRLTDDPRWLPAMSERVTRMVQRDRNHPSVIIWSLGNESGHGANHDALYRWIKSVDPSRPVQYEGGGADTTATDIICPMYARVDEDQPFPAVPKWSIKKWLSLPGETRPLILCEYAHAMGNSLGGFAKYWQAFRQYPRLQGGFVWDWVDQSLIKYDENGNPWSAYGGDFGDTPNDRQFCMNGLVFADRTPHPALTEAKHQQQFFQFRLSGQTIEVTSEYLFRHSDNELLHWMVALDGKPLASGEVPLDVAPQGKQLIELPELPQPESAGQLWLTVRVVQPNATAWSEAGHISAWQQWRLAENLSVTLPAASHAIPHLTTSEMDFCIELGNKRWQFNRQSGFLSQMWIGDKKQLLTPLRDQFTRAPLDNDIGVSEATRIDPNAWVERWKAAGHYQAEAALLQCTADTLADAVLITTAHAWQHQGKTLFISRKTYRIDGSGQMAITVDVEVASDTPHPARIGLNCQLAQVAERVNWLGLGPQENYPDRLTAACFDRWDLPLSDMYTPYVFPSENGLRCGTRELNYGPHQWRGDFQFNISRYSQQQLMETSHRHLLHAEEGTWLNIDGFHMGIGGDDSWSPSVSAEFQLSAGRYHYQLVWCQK

O[C@H]1[C@H](O)[C@@H](O)CN2CC[C@H](O)[C@H]12 [Compound 1, castanospermine]
Ki (α-glucosidase (yeast) [1]): > 1500 µM | Activity against yeast α-glucosidase, in words (α-glucosidase (yeast) [1]; literature): poor activity | Ki (α-glucosidase (rice) [2]): 0.015 µM | Activity against rice α-glucosidase, in words (α-glucosidase (rice) [2]; literature): strongly inhibited | Ki (β-glucosidase (almond) [3]; [12]): 1.5 µM | Activity against almond β-glucosidase, in words (β-glucosidase (almond) [3]; literature): inhibiting

O[C@H]1[C@H](O)[C@@H](O)CN2CCSC[C@H]12 [Compound 3, 7(S),8(R),9(R),10(S)-Trihydroxy-2-thiaquinolizidine]
Type of inhibition, yeast α-glucosidase (α-glucosidase (yeast) [4]; double reciprocal plots, FIG. 6A): competitive inhibition | Ki (α-glucosidase (yeast) [4]; p-nitrophenylglucoside substrate, 37° C.): 330 µM | Type of inhibition, rice α-glucosidase (α-glucosidase (rice) [5]; FIG. 6B): competitive inhibition | Ki (α-glucosidase (rice) [5]; maltose substrate, sodium acetate buffer pH 4.0, 37° C.): 900 µM | Inhibitory activity towards β-glucosidase (almond), in words (β-glucosidase (almond) [6]; inhibitor 0.05 mM to 11 mM): No inhibitory activity | Inhibition activity Ki, β-glucosidase (almond) (β-glucosidase (almond) [6]; n.i. = no inhibition observed): n.i.^b | Inhibitory activity towards α-galactosidase (green coffee beans), in words ([7]; inhibitor 0.05 mM to 11 mM): No inhibitory activity | Inhibition activity Ki, α-galactosidase (green coffee beans) ([7]; n.i. = no inhibition observed): n.i.^ | Inhibitory activity towards β-galactosidase (E-coli), in words ([8]; inhibitor 0.05 mM to 11 mM): No inhibitory activity | Inhibition activity Ki, β-galactosidase (E. Coli) ([8]; n.i. = no inhibition observed): n.i.^ | Inhibitory activity towards α-mannosidase (jack bean), in words ([9]; inhibitor 0.05 mM to 11 mM): No inhibitory activity | Inhibition activity Ki, α-mannosidase (jack beans) ([9]; n.i. = no inhibition observed): n.i.^

OC[C@H]1NC[C@H](O)[C@@H](O)[C@@H]1O [compound 2, deoxynojirimycin]
Ki (α-glucosidase (rice) [2]): 0.01 µM | Ki (β-glucosidase (almond) [3]; [12]): […]

O[C@@H]1[C@@H](O)[C@H](O)N2CCCC[C@H]2[C@H]1O [compound 10]
Inhibition activity Ki, β-glucosidase (almond) (β-glucosidase (almond) [3]; [12]): n.i. | Inhibition activity Ki, α-galactosidase (green coffee beans) [10]: n.i.

O[C@H]1[C@H](O)[C@H](O)CN2CCC[C@H](O)[C@H]12 [compound 11]
IC50 (α-glucosidase (yeast) [1]; literature value, read-out: Inhibition activity IC50, α-glucosidase (yeast)): > 2000 µM | IC50 (β-glucosidase (almond) [3]; literature value, read-out: Inhibition activity IC50, β-glucosidase (almond)): > 2000 µM | IC50 ([11]; literature value, read-out: Inhibition activity IC50, α-mannosidase (jack beans)): > 2000 µM | Inhibition of α-mannosidase, in words ([11]; literature): extremely poor inhibition

NC1=N[C@H](CO)[C@@H](O)[C@H](O)[C@H]1O [compound 12]
Ki (α-glucosidase (yeast) [1]): ~10 µM | Ki (β-glucosidase (almond) [3]; [12]): 8 µM | Ki [10]: ~10 µM

CC1(C)O[C@H]2[C@H](O1)[C@@H](O)CSC[C@@H]2O [compound 13]
Activity against a β-glucosidase, in words (β-glucosidase): inactive
